Results taken from ChEMBL document CHEMBL3421625, “Discovery and optimization of novel antagonists to the human neurokinin-3 receptor for the treatment of sex-hormone disorders (Part I)” (J Med Chem, 2015).
pIC50, pKi: −log10 of the molar value. Converted amounts (≈) assume the structure as drawn.

What was measured:
[1] = biological target: T1, Neuromedin-K receptor (Homo sapiens, UniProt P29371)
T1 sequence (P29371 whole entry): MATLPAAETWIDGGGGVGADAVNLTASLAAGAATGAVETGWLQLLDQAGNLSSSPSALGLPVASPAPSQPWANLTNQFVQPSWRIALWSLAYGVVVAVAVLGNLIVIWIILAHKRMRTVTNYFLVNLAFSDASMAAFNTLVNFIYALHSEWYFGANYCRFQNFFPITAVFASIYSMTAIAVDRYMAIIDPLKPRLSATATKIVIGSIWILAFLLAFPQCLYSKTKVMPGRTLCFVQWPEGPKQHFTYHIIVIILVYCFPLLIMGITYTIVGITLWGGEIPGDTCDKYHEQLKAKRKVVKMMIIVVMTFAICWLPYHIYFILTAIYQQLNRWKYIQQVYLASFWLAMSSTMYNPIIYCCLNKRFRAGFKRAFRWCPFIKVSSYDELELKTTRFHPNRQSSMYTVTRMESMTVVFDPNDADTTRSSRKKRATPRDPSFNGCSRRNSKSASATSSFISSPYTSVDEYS

[2] = biological target: Cytochrome P450 2D6 (Homo sapiens, UniProt P10635); test: Inhibition of CYP2D6 (unknown origin) by luciferase reporter assay in presence of NADPH regeneration system; format: ADME
Cytochrome P450 2D6, sequence (P10635 whole entry): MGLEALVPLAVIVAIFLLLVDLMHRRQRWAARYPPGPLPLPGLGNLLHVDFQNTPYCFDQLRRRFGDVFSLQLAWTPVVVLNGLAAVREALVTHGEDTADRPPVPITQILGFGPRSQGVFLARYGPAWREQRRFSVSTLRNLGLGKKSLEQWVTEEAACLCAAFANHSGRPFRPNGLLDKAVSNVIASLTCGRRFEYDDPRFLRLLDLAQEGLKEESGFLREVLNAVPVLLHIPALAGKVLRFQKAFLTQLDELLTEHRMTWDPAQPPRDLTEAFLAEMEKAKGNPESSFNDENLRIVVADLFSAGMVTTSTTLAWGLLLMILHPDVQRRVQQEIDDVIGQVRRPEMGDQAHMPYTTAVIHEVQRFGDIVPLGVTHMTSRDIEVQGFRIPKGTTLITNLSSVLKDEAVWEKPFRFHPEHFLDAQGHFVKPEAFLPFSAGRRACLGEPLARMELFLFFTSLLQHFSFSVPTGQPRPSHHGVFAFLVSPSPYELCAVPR

[3] = Solubility of the compound in PBS buffer at pH 7.4 by shake-flask method; format: physicochemical
[4] = biological target: T2, Cytochrome P450 1A2 (Homo sapiens, UniProt P05177); test: Inhibition of CYP1A2 (unknown origin) by luciferase reporter assay in presence of NADPH regeneration system; format: ADME
T2 sequence (P05177 whole entry): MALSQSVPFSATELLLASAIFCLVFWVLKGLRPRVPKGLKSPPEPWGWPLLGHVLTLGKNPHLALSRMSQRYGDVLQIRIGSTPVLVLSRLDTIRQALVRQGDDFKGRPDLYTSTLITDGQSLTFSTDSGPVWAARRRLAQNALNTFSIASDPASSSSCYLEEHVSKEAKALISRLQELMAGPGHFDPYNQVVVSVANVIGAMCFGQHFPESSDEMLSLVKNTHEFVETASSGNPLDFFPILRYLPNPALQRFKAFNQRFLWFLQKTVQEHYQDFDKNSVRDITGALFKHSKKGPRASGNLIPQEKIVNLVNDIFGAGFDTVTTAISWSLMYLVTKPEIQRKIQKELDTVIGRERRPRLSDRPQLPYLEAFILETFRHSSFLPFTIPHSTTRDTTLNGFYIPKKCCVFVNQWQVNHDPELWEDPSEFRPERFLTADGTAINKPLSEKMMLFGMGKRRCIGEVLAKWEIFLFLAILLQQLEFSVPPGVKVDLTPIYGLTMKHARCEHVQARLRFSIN

[5] = biological target: Cytochrome P450 2C9 (Homo sapiens, UniProt P11712); test: Inhibition of CYP2C9 (unknown origin) by luciferase reporter assay in presence of NADPH regeneration system; format: ADME
Cytochrome P450 2C9, sequence (P11712 whole entry): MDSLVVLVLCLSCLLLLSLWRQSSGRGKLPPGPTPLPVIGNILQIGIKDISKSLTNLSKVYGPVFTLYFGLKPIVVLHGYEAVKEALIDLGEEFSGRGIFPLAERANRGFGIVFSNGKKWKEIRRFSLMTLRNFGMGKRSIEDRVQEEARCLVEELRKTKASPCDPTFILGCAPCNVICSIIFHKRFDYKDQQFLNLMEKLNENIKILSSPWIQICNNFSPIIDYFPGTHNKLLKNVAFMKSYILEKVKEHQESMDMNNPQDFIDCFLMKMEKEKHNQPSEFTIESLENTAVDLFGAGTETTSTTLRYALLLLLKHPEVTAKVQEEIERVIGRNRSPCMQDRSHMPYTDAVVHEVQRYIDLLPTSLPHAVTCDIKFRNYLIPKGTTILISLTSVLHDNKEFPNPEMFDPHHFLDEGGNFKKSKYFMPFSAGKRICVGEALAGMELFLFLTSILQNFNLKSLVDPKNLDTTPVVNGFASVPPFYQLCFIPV

[6] = biological target: Cytochrome P450 2C19 (Homo sapiens, UniProt P33261); test: Inhibition of CYP2C19 (unknown origin) by luciferase reporter assay in presence of NADPH regeneration system
Cytochrome P450 2C19, sequence (P33261 whole entry): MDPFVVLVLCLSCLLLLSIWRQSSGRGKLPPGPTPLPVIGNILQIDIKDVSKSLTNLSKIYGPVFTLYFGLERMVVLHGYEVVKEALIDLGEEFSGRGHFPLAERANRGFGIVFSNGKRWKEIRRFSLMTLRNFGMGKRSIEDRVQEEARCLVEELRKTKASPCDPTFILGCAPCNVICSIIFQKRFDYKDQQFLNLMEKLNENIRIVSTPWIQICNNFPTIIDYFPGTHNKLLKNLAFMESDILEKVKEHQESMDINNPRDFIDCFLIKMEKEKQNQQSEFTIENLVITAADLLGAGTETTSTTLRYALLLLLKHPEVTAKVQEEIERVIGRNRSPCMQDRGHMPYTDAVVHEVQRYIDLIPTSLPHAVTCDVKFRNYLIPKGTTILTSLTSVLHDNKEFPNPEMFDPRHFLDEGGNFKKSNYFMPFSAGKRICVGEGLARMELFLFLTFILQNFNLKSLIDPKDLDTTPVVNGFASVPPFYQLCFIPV

[7] = biological target: Cytochrome P450 3A4 (Homo sapiens, UniProt P08684); test: Inhibition of CYP3A4 (unknown origin) by luciferase reporter assay in presence of NADPH regeneration system; format: ADME
Cytochrome P450 3A4, sequence (P08684 whole entry): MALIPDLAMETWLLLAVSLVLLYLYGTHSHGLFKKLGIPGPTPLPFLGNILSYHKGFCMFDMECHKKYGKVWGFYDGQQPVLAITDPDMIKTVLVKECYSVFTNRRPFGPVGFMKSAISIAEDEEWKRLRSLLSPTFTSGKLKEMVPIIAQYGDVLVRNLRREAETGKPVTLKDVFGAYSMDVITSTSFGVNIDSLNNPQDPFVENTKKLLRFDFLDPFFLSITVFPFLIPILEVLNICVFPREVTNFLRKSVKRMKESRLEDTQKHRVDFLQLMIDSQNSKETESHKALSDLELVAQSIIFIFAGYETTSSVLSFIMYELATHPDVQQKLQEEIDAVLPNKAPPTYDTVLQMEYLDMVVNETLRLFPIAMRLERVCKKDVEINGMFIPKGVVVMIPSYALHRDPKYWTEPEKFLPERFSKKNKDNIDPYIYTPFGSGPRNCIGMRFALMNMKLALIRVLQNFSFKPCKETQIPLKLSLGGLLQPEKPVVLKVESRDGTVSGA

[8] = Lipophilicity, log D of the compound at pH 7.4; format: physicochemical; conditions: buffer, read-out: logD
[9] = biological target: T1, Neuromedin-K receptor; test: biochemical
Description: Displacement of [3H]-SB222200 from recombinant human NK3R expressed in CHO cell membranes after 90 mins by scintillation counting analysis

| SMILES | pIC50 [1] | pIC50 [2] | solubility thermodynamic [3] [µM] | pIC50 [4] | pIC50 [5] | pIC50 [6] | pIC50 [7] | logD [8] | pKi [9] |
| --- | --- | --- | --- | --- | --- | --- | --- | --- | --- |
| Cc1cccc(-c2nnc3n2CCN(C(=O)c2ccc(-c4cccs4)cc2)[C@@H]3C)n1 | 8.00 | 4.07 | 110 (≈ 45.7 µg/mL) | 4.24 | 4.74 | 4.59 | 4.35 | 3.4 | – |
| C[C@@H]1c2nnc(-c3csc(C(F)(F)F)n3)n2CCN1C(=O)c1ccc(-c2cccs2)cc1 | 7.20 | < 4.00 | 11 (≈ 5.23 µg/mL) | 5.10 | 5.30 | 4.74 | < 4.00 | 4.1 | 7.10 |
| Cc1cncc(-c2nnc3n2CCN(C(=O)c2ccc(-c4cccs4)cc2)[C@@H]3C)n1 | 7.70 | < 4.00 | 160 (≈ 66.6 µg/mL) | 4.30 | 4.77 | 4.41 | 5.70 | 2.7 | 7.90 |
| Cc1cccnc1-c1nnc2n1CCN(C(=O)c1ccc(F)cc1)C2 | < 4.50 | – | ≥ 200 | – | – | – | – | – | < 4.50 |
| Cc1ccc(-c2nnc3n2CCN(C(=O)c2ccc(F)cc2)C3)nc1 | 5.60 | – | ≥ 200 | – | – | – | – | – | 5.80 |
| CC(C)c1nc(-c2nnc3n2CCN(C(=O)c2ccc(-c4cccs4)cc2)[C@@H]3C)cs1 | 8.40 | 4.57 | 25 (≈ 11.2 µg/mL) | 4.77 | 5.40 | 4.92 | 4.46 | 4.4 | 8.60 |
| COc1ccc(-c2ccc(C(=O)N3CCn4c(nnc4-c4ccccn4)C3)cc2)cc1 | < 4.50 | – | 6.4 (≈ 2.63 µg/mL) | – | – | – | – | – | < 4.50 |
| O=C(c1ccccc1F)N1CCn2c(nnc2-c2ccccn2)C1 | < 4.50 | – | ≥ 200 | – | – | – | – | – | < 4.50 |
| COc1cccc(C(=O)N2CCn3c(nnc3-c3ccccn3)C2)c1 | < 4.50 | – | 196 (≈ 65.7 µg/mL) | – | – | – | – | – | < 4.50 |
| COc1ccccc1C(=O)N1CCn2c(nnc2-c2ccccn2)C1 | < 4.50 | – | ≥ 200 | – | – | – | – | – | < 4.50 |
| Cc1cccc(-c2nnc3n2CCN(C(=O)c2ccc(F)cc2)[C@@H]3C)n1 | 7.10 | – | 197 (≈ 69.2 µg/mL) | – | – | – | – | 1.6 | 7.20 |
| Cc1csc(-c2nnc3n2CCN(C(=O)c2ccc(-c4cccs4)cc2)[C@@H]3C)n1 | – | 4.38 | 50 (≈ 21.1 µg/mL) | 5.10 | 5.10 | 4.74 | 4.96 | 2.9 | 8.20 |
| O=C(c1ccc(-c2ccc(F)cc2)cc1)N1CCn2c(nnc2-c2ccccn2)C1 | 5.80 | – | 10 (≈ 3.99 µg/mL) | – | – | – | – | – | 5.70 |
| O=C(c1ccc(Cc2ccccc2)cc1)N1CCn2c(nnc2-c2ccccn2)C1 | < 4.50 | – | 169 (≈ 66.8 µg/mL) | – | – | – | – | – | < 4.50 |
| Cc1cccc(-c2nnc3n2CCN(C(=O)c2ccc(F)cc2)C3)n1 | 6.30 | < 4.00 | ≥ 200 | 4.16 | < 4.00 | 4.32 | < 4.00 | 1.4 | 6.30 |
| O=C(c1ccc(F)cc1)N1CCn2c(nnc2-c2cccc(C(F)(F)F)n2)C1 | 6.40 | < 4.00 | 193 (≈ 75.5 µg/mL) | 4.68 | < 4.00 | < 4.00 | < 4.00 | – | 6.40 |
| O=C(c1ccc(-c2ccccc2)cc1)N1CCn2c(nnc2-c2ccccn2)C1 | 5.80 | – | 28 (≈ 10.7 µg/mL) | – | – | – | – | – | 5.90 |
| Cc1nc(-c2nnc3n2CCN(C(=O)c2ccc(F)cc2)[C@@H]3C)cs1 | – | < 4.00 | ≥ 200 | < 4.00 | 4.25 | 4.36 | 4.20 | 1.3 | – |
| C[C@@H]1c2nnc(-c3ccccn3)n2CCN1C(=O)c1ccc(F)cc1 | 6.10 | – | ≥ 200 | – | – | – | – | – | 6.10 |
| O=C(c1cc(-c2ccc(Cl)cc2)n[nH]1)N1CCn2c(nnc2-c2ccccn2)C1 | 5.80 | – | 1.4 (≈ 0.568 µg/mL) | – | – | – | – | – | 5.80 |
| O=C(c1ccc(-c2cccs2)cc1)N1CCn2c(nnc2-c2ccccn2)C1 | 6.20 | – | 12 (≈ 4.65 µg/mL) | – | – | – | – | – | 6.30 |
| O=C(c1ccc(-c2ccc(Cl)cc2)cc1)N1CCn2c(nnc2-c2ccccn2)C1 | 5.40 | – | 5.3 (≈ 2.2 µg/mL) | – | – | – | – | – | 5.30 |
| C[C@H]1c2nnc(-c3ccccn3)n2CCN1C(=O)c1ccc(F)cc1 | 5.10 | – | ≥ 200 | – | – | – | – | – | 5.10 |
| Cc1ccnc(-c2nnc3n2CCN(C(=O)c2ccc(F)cc2)C3)c1 | 5.20 | – | ≥ 200 | – | – | – | – | – | 5.20 |
| Cc1ccc(-c2ccc(C(=O)N3CCn4c(nnc4-c4ccccn4)C3)cc2)o1 | 5.00 | – | 71 (≈ 27.4 µg/mL) | – | – | – | – | – | 4.80 |
| Cc1nc(-c2nnc3n2CCN(C(=O)c2ccc(-c4cccs4)cc2)[C@H]3C)cs1 | – | – | – | – | – | – | – | 3.1 | – |
| COc1ccc(C(=O)N2CCn3c(nnc3-c3ccccn3)C2)cc1 | < 4.50 | – | 194 (≈ 65.1 µg/mL) | – | – | – | – | – | < 4.50 |
| O=C(c1cccc(F)c1)N1CCn2c(nnc2-c2ccccn2)C1 | 5.20 | – | 199 (≈ 64.3 µg/mL) | – | – | – | – | – | 5.30 |
